Experimental data as given in US20230277669A1, “USES OF UROLITHINS” (Amazentis SA, priority 2022, published 2023).

Columns and labels:
[1] = test system: CAR-T cells specific for carcinoembryonic antigen (CEA); test: UA applied to previously frozen CEA-specific CAR-T cells; format: cell-based, human
APTK organoids = APTK organoids incubated with UA, flow cytometry; format: cell-based, murine
Excerpt: Oral UA confers anti-tumor effects in murine colorectal cancer in a T-cell dependent manner. (FIG. 1A) Schematic representation of AOM model and different UA containing diets. (FIG. 1B) Representative images of swiss-roll sections from AOM-induced colon tumors. Scale bars are 2 mm (upper row) and 300 µm (lower row), respectively. (FIG. 1C) Tumor incidence of AOM-induced tumors receiving different UA-containing diets; n=4/5/5. Data are mean ±SD, depicting one of two independent experiments. *p < 0.05 by two-sided t-test. (FIG. 1D) Average lesion size of AOM-induced tumors receiving different UA-containing diets; n=4/5/5. Data are mean ±SD, depicting one of two independent experiments. *p < 0.05 by two-sided t-test. (FIG. 1E) Relative number of CD45^+CD3^+ T cells in colons of AOM-treated mice at week 24 (n>7, pooled from two independent experiments). Data are mean ± SD, **p < 0.01 by two-sided t-test. (FIG. 1F) Organoid treatment scheme. APTK-organoids were incubated in the presence of UA or DMSO for the indicated time points, prior to flow cytometric analysis. (FIG. 1G) Quantification of lysosome formation as assessed by lysotracker MFI via flow cytometry after 24 h incubation at the presence of various UA concentrations (n=5/4/4). Depicts one out of two indepdent experiments. Data are mean ± SD, *p < 0.05; **p < 0.01 as established via two-sided t-test. (FIG. 1H) Mitotracker signal of APTK organoids incubated for 24 h at the presence of UA in vitro (n=4/4/4) and antigen presentation via MHC-I molecules (I) after 48 h of treatment (n=4/4/4). Results from one out of two independent experiments are shown. Data are mean ± SD, statistical analysis was performed via two-sided t-test, *p < 0.05; **p < 0.01, ****p < 0.0001. (FIG. 1I) Upregulation of MHC-I by UA. (FIG. 1J) Experimental setup of oral UA administration in mice with established APTK-s.c. tumors. […] (FIG. 1L) End point tumor weight, (FIG. 1M) CD8+ T cell infiltration in APTK-s.c. tumors assessed by flow cytometry, normalising total number of CD8^+ T cells to tumor weight (n=7 per group). […]

[2] = increasing concentrations of UA, 24 h

O=c1oc2cc(O)ccc2c2ccc(O)cc12 [Urolithin A] was tested, and the “CAR TSCM formation” value [1] was “strongly enhanced CAR TSCM formation”, the “MHC-I (antigen presentation)” value (APTK organoids; 48 h of treatment) was “marked upregulation of MHC-I” and the MitoTracker staining (APTK organoids; [2]) was “loss of MitoTracker staining”. For the same molecule, the “formation of lysosomes (lysotracker MFI)” value (APTK organoids; [2]) was “dose-dependent formation of lysosomes”.
